# Key:
# [1] = test system: Guinea Pig Tracheal Chain; experiment: Estimation of pA2 values in guinea pig tracheal chain (contractile agonist U-44069); parameters: species or system guinea pigs; conditions: for Kb: Cavia porcellus, 5 min, guinea pig tracheal chain, agonist U-44069
# Excerpt: Estimation of pA₂ Values in Guinea Pig Tracheal Chain
# Male albino Hartley strain guinea pigs (300-350 gm) were sacrificed by a blow to the head and exsanguinated. The trachea was removed, freed of extraneous tissue and sectioned into rings of 1-2 mm thickness. Five rings were tied together in series, ensuring that the tracheal muscle lay in the same vertical plane, and the cartilage of each ring then separated at a point directly opposite the muscle. The chains were suspended under 1 gm resting tension in modified Krebs solution (NaCl, 6.87; NaHCO₃, 2.1; dextrose, 2.1; KCl, 0.32; CaCl₂, 0.28; MgSO₄, 7H₂O, 0.11; KH₂PO₄, 0.16; gm/L: equilibrated with 5% CO₂ in O₂ for 1 hour) containing indomethacin (1.4 x 10-⁵M) to suppress endogenous protaglandin synthesis, Organ bath temperature was maintained at 37°C and 5% CO₂ in O₂ diffused continously. Isometric tension changes were recorded from a Gould-Statham (UTC 2) force displacement transducer connected to a Beckman Type R Dynograph. For assay purposes initial maximal contractions were elicited with a high concentration of the contractile agonist [U-44069, 9.11-dideoxy-9a,11a-epoxymethano PGF2a] and the tissue sub sequently washed at intervals until tension returned to baseline. Agonist dose response curves were obtained using a cumulative-dose schedule (4-8 doses) and the preparations then washed at regular intervals until baseline tension was recorded. After an appropriate interval (1-1.5 hrs) agonist dose response curves were repeated in the presence of antagonist drug concentrations. […] EC₅₀ values were obtained by regression analysis and used to calculate 'apparent' and Schild Plot pA₂ values by the method of Tallarida and Murray 1981.
# Human platelets = experiment: Inhibition of induced threshold aggregation of human platelets (agonist U44069); assay type: cell-based; conditions: human platelet rich plasma, aggregating agent U44069; read-out: Inhibition of platelet aggregation (IC50 in mg/ml)
# Description: Inhibition of Induced Threshold Aggregation of Human Platelets
# Human platelet rich plasma (PRP) is prepared from venous blood of male volunteers who have taken no medication for ten days prior to test. Blood is transferred into plastic centrifuge tubes containing 3.8% Trisodium Citrate in 0.9% NaCl (in a ratio of blood to anticoagulant of 9:1), mixed by gentle inversion, and centrifuged at room temperature for ten minutes at 116 g. The supernatant (PRP) is transferred into plastic tubes. Platelet poor plasma (PPP) is obtained by centrifuging the residual blood cells at 4000 g for ten minutes. PRP is left to stand at least one half hour prior to testing.
# Platelet Aggregation is measured using a Payton Aggregometer and Recorder. Following calibration of the instrument, a cuvette containing PRP (225 microliters) is incubated for three minutes at 37°C. Drug vehicle (control), or a drug concentration is then added in a volume of 0.5 microliter. After one minute, the aggregating agent (U44069, 9,11-dideoxy-9a,11a-epoxymethano PGF2a) is added to the cuvette in a volume of 25 microliters. Recording is continued until the maximal response is obtained.
# The threshold (approximately 20 - 30% of maximum) aggregation concentration of the agonist to be used is first determined in the presence of the drug vehicle (control). Test compounds are then assayed at 10 or 30 micrograms/ml initially, and if active, are further tested in order to determine the concentration range at which 20-80% of the threshold aggregatory response is inhibited. All drugs are dissolved in dimethylsulfoxide.
# The height of the aggregation response (measured in divisions of the recorder paper, 1 division = 2.5 mm) in the presence of the drug is recorded, and calculated as percent inhibition of the mean height of the control threshold responses. The IC₅₀ (drug concentration which inhibits 50% of the aggregatory response) is obtained by regression analysis.
# [2] = relative to compound 2 (so in the source)
Structure (SMILES),IC50 (Human platelets),Kb [1],"pA2 lower than that of compound 2 [1, 2]","potency factor corresponding to the pA2 difference [1, 2]"
"O=C(O)CC1CCCc2c(n(Cc3ccc(Cl)cc3)c3ccc(F)cc23)C1 (stereo not shown) [Compound 1, 2-Fluoro-5-(p-chlorobenzyl)-5,6,7,8,9,10-hexahydrocyclo hept[b]indole-7-acetic acid]",0.05 µg/mL,0.00316 µM,,
"O=C(O)CC1CCCCc2c1c1cc(F)ccc1n2Cc1ccc(Cl)cc1 (stereo not shown) [Compound 2, 2-Fluoro-5-(p-chlorobenzyl)-5,6,7,8,9,10-hexahydrocyclo hept[b]indole-10-acetic acid]",4.5 µg/mL,0.0427 µM,,
"O=C(O)C1CCCc2c(n(Cc3ccc(Cl)cc3)c3ccc(F)cc23)C1 (stereo not shown) [Compound 3, 2-Fluoro-5-(p-chlorobenzyl)-5,6,7,8,9,10-hexahydrocyclo hept[b]indole-7-carboxylic acid]",7.46 µg/mL,0.129 µM,,
"O=C(O)CC1CCCCc2c1n(Cc1ccc(Cl)cc1)c1ccc(F)cc21 (stereo not shown) [Compound 4, 2-Fluoro-5-(p-chlorobenzyl)-5,6,7,8,9,10-hexahydrocyclohept[b]indole-6-acetic acid]",0.015 µg/mL,0.00135 µM,,

# Now from value to compound, other results behind:
IC50 (Human platelets),Structure (SMILES),Kb [1],"pA2 lower than that of compound 2 [1, 2]","potency factor corresponding to the pA2 difference [1, 2]"
0.012 µg/mL,"CS(=O)(=O)c1ccc(Cn2c3c(c4cc(F)cc(F)c42)CCCC(CC(=O)O)C3)cc1 (stereo not shown) [Compound 36, 2,4-Difluoro-5(p-methylsulfonylbenzyl)-5,6,7,8,9,10-hexahydrocyclohept[b]indole-7-acetic acid]",0.00832 µM,,
3.5 µg/mL,"COc1ccc2c(c1)c1c(n2Cc2ccc(Cl)cc2)CC(CC(=O)O)CC1 (stereo not shown) [Compound A, reference compound]",0.158 µM,1.7 log units,15
> 30 µg/mL,"COc1ccc2c(c1)c1c(n2Cc2ccc(Cl)cc2)CC(C(=O)O)CC1 (stereo not shown) [Compound B, reference compound]",0.158 µM,,

# Source: patent EP0304156A1, “Cyclohept b indolealkanoic acids” (MERCK FROSST CANADA INC., priority 1987, dated 1989)
